Reference: patent publication US6506339B1, “Method of sterilization” (Biomedical Design, Inc., priority 1997, dated 2003)

Tests used:
[1] = test system: spores of Bacillus subtilis; test: Two sequential spore inoculations on cross-linked porcine valves (Example 5); type: cell-based; details: 25 mM EDC, 20% isopropyl alcohol, 40° C.
Method: An experiment was also designed to test the bactericidal activity of the EDC treatment using two sequential inoculations of at least 1×10^6 spores of Bacillus subtilis per sample. In the first step, 1.43×10^6 spores (Log10=6.2) were inoculated in triplicate for 10 minutes onto 45 porcine valves which had been cross-linked using a method as described in the above-mentioned patent and patent application. Solutions of 25 mM EDC in 10 mM HEPES, 0.85% NaCl, 20% isopropyl alcohol, at pH 6.5 were poured into the cups containing the valve samples. After 2, 4, 6, and 8 hours of incubation at 40° C., the total surviving spores from 12 samples (solution plus tissue) were counted. After 8 hours of incubation, an additional 1.2×10^6 (Log10=6.1) spores were added to the remaining 33 samples. Summarizing, these remaining 33 samples were thus inoculated at t=0 with 1.43×10^6 spores and at t=8 with 1.2×10^6 spores. After various durations of incubation (see Table C for details), the surviving spores in solution and on the valve tissue were removed by filtering and incubated on TSA plates as described above. The positive and negative controls were determined to be valid for the test.

[2] = test system: Mycobacterium Chelonae ATCC 35752; test: Sterilization test, Mycobacterium chelonae in sterile cups at room temperature (Example 1); type: cell-based; set-up: key: (+) Indicates growth; (−) indicates no growth or complete kill; details: 10 mM EDC+1 mM Sulfo-NHS, 20% isopropyl alcohol
Method: Porcine aortic roots are fixed by cross-linking according to the method described in U.S. Pat. No. 5,447,536. After fixation, the valves are stored in 10 mM HEPES, 0.85% NaCl, 20% isopropyl alcohol, pH 7.4, at 4° C. The sterility tests described in the following examples are in most cases conducted in the presence of bioprosthetic heart valve tissue; when such tissue is not present, the solutions are simply filtered through a 0.45 micron filter attached to a funnel (filter funnel). The filters are then rinsed with peptone water to eliminate residual chemicals on the membrane that may prevent growth of the organisms tested. Such membrane filters are then incubated on TSA plates at about 32° to 33° C., e.g. 32.5° C. When an aortic valve is inoculated with microorganisms for test purposes and then submitted to sterilization, the solution is filtered as described above. The aortic valve tissue is then washed for 20 minutes in a reciprocating shaker in the presence of peptone water containing Tween 80 in order to extract all indigenous spores or microorganisms from the tissue. This solution is filtered and then incubated as described above. All microbiological testing is performed in a biological laminar flow hood to prevent contamination. The shrinkage temperature and the proteolytic (collagenase and protease) degradation tests are conducted as previously described in the '536 patent. Resistance to calcification is assessed by subdermal implantation of sterilized leaflets and aortic wall coupons in young rats, as also described in the '536 U.S. patent.
Mycobacterium Chelonae ATCC 35752 (˜10^5) was inoculated in sterile cups. A 10 mM HEPES, 0.85% NaCl, pH 6.5 solution containing 10 mM EDC and 1 mM Sulfo-NHS in the presence or absence of 20% isopropyl alcohol was maintained in contact with the bacteria in the cups for various periods of time (treatment duration). The cups were maintained at room temperature, and the solutions were then filtered. The filters were then incubated at about 32-33° C. for up to 6 weeks (incubation duration) using either Trypticase Soy Agar (TSA) plates or Trypticase Soy Broth (TSB). All inoculations were done in duplicate.

[3] = 28 to 56 hours, rechallenge with 1.2×10^6 spores at 8 hours, mean of three samples
[4] = 2 hours, inoculum 1.43×10^6, mean of three samples
[5] = 4 hours, inoculum 1.43×10^6, mean of three samples
[6] = 6 hours, inoculum 1.43×10^6, mean of three samples
[7] = 8 hours, inoculum 1.43×10^6, mean of three samples
[8] = 11 hours, rechallenge with 1.2×10^6 spores at 8 hours, mean of three samples
[9] = 14 hours, rechallenge with 1.2×10^6 spores at 8 hours, mean of three samples
[10] = 20 hours, rechallenge with 1.2×10^6 spores at 8 hours, mean of three samples
[11] = 24 hours, rechallenge with 1.2×10^6 spores at 8 hours, mean of three samples

For CCN=C=NCCCN(C)C.Cl [EDC, 1-ethyl-3(3-dimethylaminopropyl)carbodiimide hydrochloride], the “LOG REDUCTION” value [1, 3] was 6.1, the “Total Survivors # CFUs” value [1, 3] was 0 CFUs and the “Total Survivors Log 10” value [1, 3] was 0 Log 10. For the same compound, the “LOG REDUCTION” value [1, 4] was 4.5, the “Total Survivors # CFUs” value [1, 4] was 58 CFUs and the “Total Survivors Log 10” value [1, 4] was 1.7 Log 10. For the same compound, the “LOG REDUCTION” value [1, 5] was 5.6, the “Total Survivors # CFUs” value [1, 5] was 4 CFUs and the “Total Survivors Log 10” value [1, 5] was 0.5 Log 10. For the same compound, the “LOG REDUCTION” value [1, 6] was 6.2, the “Total Survivors # CFUs” value [1, 6] was 0 CFUs and the “Total Survivors Log 10” value [1, 6] was 0 Log 10. For the same compound, the “LOG REDUCTION” value [1, 7] was 6.2, the “Total Survivors # CFUs” value [1, 7] was 0 CFUs and the “Total Survivors Log 10” value [1, 7] was 0 Log 10. The “LOG REDUCTION” value [1, 8] was 3.7, the “Total Survivors # CFUs” value [1, 8] was 300 CFUs and the “Total Survivors Log 10” value [1, 8] was 2.5 Log 10. The “LOG REDUCTION” value [1, 9] was 6.1, the “Total Survivors # CFUs” value [1, 9] was 0 CFUs and the “Total Survivors Log 10” value [1, 9] was 0 Log 10. For the same compound, the “LOG REDUCTION” value [1, 10] was 6.1, the “Total Survivors # CFUs” value [1, 10] was 0 CFUs and the “Total Survivors Log 10” value [1, 10] was 0 Log 10. For the same compound, the “LOG REDUCTION” value [1, 11] was 6.1, the “Total Survivors # CFUs” value [1, 11] was 0 CFUs and the “Total Survivors Log 10” value [1, 11] was 0 Log 10. For the same compound, the growth ([2]; treatment 0 hour, incubation 1 Day, TSA) was “−,−”, the growth ([2]; treatment 0 hour, incubation 1 Day, TSB) was “−,−” and the growth ([2]; treatment 0 hour, incubation 1 Week, TSA) was “−,−”. The growth ([2]; treatment 0 hour, incubation 1 Week, TSB) was “−,−”, the growth ([2]; treatment 12 hours, incubation 1 Day, TSA) was “−,−” and the growth ([2]; treatment 12 hours, incubation 1 Day, TSB) was “−,−”. The growth ([2]; treatment 12 hours, incubation 1 Week, TSA) was “−,−”, the growth ([2]; treatment 12 hours, incubation 1 Week, TSB) was “−,−” and the growth ([2]; treatment 12 hours, incubation 3 Week, TSA) was “−,−”. The growth ([2]; treatment 12 hours, incubation 3 Week, TSB) was “−,−”, the growth ([2]; treatment 12 hours, incubation 4 Week, TSA) was “−,−” and the growth ([2]; treatment 12 hours, incubation 4 Week, TSB) was “−,−”. For the same compound, the growth ([2]; treatment 12 hours, incubation 6 Week, TSA) was “−,−”, the growth ([2]; treatment 12 hours, incubation 6 Week, TSB) was “−,−” and the growth ([2]; treatment 24 hours, incubation 1 Day, TSA) was “−,−”. For the same compound, the growth ([2]; treatment 24 hours, incubation 1 Day, TSB) was “−,−”, the growth ([2]; treatment 24 hours, incubation 1 Week, TSA) was “−,−” and the growth ([2]; treatment 24 hours, incubation 1 Week, TSB) was “−,−”. For the same compound, the growth ([2]; treatment 24 hours, incubation 3 Week, TSA) was “−,−”, the growth ([2]; treatment 24 hours, incubation 3 Week, TSB) was “−,−” and the growth ([2]; treatment 24 hours, incubation 4 Week, TSA) was “−,−”. The growth ([2]; treatment 24 hours, incubation 4 Week, TSB) was “−,−”, the growth ([2]; treatment 24 hours, incubation 6 Week, TSA) was “−,−” and the growth ([2]; treatment 24 hours, incubation 6 Week, TSB) was “−,−”. The growth ([2]; treatment 48 hours, incubation 1 Day, TSA) was “−,−”, the growth ([2]; treatment 48 hours, incubation 1 Day, TSB) was “−,−” and the growth ([2]; treatment 48 hours, incubation 1 Week, TSA) was “−,−”. For the same compound, the growth ([2]; treatment 48 hours, incubation 1 Week, TSB) was “−,−”, the growth ([2]; treatment 48 hours, incubation 3 Week, TSA) was “−,−” and the growth ([2]; treatment 48 hours, incubation 3 Week, TSB) was “−,−”. The growth ([2]; treatment 48 hours, incubation 4 Week, TSA) was “−,−”, the growth ([2]; treatment 48 hours, incubation 4 Week, TSB) was “−,−” and the growth ([2]; treatment 48 hours, incubation 6 Week, TSA) was “−,−”. For the same compound, the growth ([2]; treatment 48 hours, incubation 6 Week, TSB) was “−,−”, the growth ([2]; treatment 72 hours, incubation 1 Day, TSA) was “−,−” and the growth ([2]; treatment 72 hours, incubation 1 Day, TSB) was “−,−”. The growth ([2]; treatment 72 hours, incubation 1 Week, TSA) was “−,−”, the growth ([2]; treatment 72 hours, incubation 1 Week, TSB) was “−,−” and the growth ([2]; treatment 72 hours, incubation 3 Week, TSA) was “−,−”. The growth ([2]; treatment 72 hours, incubation 3 Week, TSB) was “−,−”, the growth ([2]; treatment 72 hours, incubation 4 Week, TSA) was “−,−” and the growth ([2]; treatment 72 hours, incubation 4 Week, TSB) was “−,−”. The growth ([2]; treatment 72 hours, incubation 6 Week, TSA) was “−,−” and the growth ([2]; treatment 72 hours, incubation 6 Week, TSB) was “−,−”.
